US20130210887A1, “DENDRIMERS AS NON-VIRAL VEHICLES FOR GENE THERAPY” (UNIVERSIDAD DE CASTILLA LA MANCHA, priority 2010, published 2013)

System: siRNA
Assay: Gel shift (electrophoretic shift in agarose gel) of siRNA by coupling to the dendrimer
Assay type: binding
Settings: 2 μM siRNA; 30 min incubation at ambient temperature; 1% agarose gel, 15 min at 60V
Text: FIG. 1, relates to the electrophoretic shift analysis of siRNA by the coupling to the compound of general formula (I). The numbers in (A) correspond to different N/P ratios (nitrogenated amines in compound of general formula (0/phosphates in siRNA): (1) 1:0 (siRNA alone), (2) 6:1, (3) 12:1, (4) 24:1, (5) 48:1, (6) 96:1, (7) 192:1 and (8) 384:1. The densitometric analysis of the results of the gel shift experiment are shown in (B).
The compound complexes of general formula (I)-siRNA were formed by mixing equal quantities of volume of the solution that contained compound of general formula (I) and of that containing the siRNA (Org Biomol Chem. 2007. 5: 1886-1893; Pharm Res. 2009. 26: 1181-1191), and incubating the mixture under stirring during 30 minutes at ambient temperature. Both molecules were dissolved in DEPC water (free from RNAses).
The shift in agarose gel was used to ascertain the N/P ratio (nitrogenated amines in compound of general formula (I)/phosphates in siRNA) adapted to obtain the greatest efficacy of bonding possible between both molecules (Mol Biol Rep. 2009. 36: 1083-1093; Am J Med Genet B Neuropsychiatr Genet. 2008. 147B: 769-777). The mixing of different concentrations of compound of general formula (I) and of 250 ng of siRNA was tested. […] The gels were photographed and the bands were quantified with a suitable image analysis system (Quantity One). […]

For NCCNC(=O)CCN(CCC(=O)NCCN)CCN(CCC(=O)NCCN)Cc1ccc(/C=C/c2cc(/C=C/c3ccc(CN(CCC(=O)NCCN)CCN(CCC(=O)NCCN)CCC(=O)NCCN)cc3)cc(/C=C/c3ccc(CN(CCC(=O)NCCN)CCN(CCC(=O)NCCN)CCC(=O)NCCN)cc3)c2)cc1 [compound of general formula (I)], the “concentration of compound of general formula (I) at which all the siRNA is fixed (P/N ratio of 12:1)” value was 22 µM.
